Assay type in all cases: functional
In assay [1] the target is Melanin-concentrating hormone receptor 1 (Homo sapiens, UniProt Q99705). In words: Late-stage fluorescence-based counterscreen for antagonists of the G-protein coupled receptor 7 (GPR7): cell-based dose response assay to identify antagonists of the melanin-concentrating hormone receptor 1 (MCHR1) Set 6.
The target of assay [2] is T1, Neuropeptides B/W receptor type 1 (Homo sapiens, UniProt P48145).
T1 sequence (P48145 whole entry): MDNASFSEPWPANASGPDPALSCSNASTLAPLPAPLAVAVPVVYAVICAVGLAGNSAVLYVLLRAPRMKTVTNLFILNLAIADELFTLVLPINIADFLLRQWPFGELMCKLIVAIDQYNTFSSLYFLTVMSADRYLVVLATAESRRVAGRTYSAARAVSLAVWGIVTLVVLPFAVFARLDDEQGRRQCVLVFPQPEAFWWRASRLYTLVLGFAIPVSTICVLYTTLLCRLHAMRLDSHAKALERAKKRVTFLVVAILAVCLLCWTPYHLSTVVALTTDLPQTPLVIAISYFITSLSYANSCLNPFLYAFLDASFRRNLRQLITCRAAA
The assay is described as follows: GPR7 antagonist potency, late-stage follow-up, cell-based, fluorescence, dose response, set 6 (AID 588583).

Assay [3] in a line: SAR analysis of small molecule activators of Apaf-1 using a LZ-Caspase-9/Caspase-3 Fluorescent Selectivity assay - Set 2. As to conditions: read-out: EC50_Mean.
Assay [4] concerns the target T2, Apoptotic protease-activating factor 1 (Homo sapiens, UniProt O14727).
T2 sequence (O14727 whole entry): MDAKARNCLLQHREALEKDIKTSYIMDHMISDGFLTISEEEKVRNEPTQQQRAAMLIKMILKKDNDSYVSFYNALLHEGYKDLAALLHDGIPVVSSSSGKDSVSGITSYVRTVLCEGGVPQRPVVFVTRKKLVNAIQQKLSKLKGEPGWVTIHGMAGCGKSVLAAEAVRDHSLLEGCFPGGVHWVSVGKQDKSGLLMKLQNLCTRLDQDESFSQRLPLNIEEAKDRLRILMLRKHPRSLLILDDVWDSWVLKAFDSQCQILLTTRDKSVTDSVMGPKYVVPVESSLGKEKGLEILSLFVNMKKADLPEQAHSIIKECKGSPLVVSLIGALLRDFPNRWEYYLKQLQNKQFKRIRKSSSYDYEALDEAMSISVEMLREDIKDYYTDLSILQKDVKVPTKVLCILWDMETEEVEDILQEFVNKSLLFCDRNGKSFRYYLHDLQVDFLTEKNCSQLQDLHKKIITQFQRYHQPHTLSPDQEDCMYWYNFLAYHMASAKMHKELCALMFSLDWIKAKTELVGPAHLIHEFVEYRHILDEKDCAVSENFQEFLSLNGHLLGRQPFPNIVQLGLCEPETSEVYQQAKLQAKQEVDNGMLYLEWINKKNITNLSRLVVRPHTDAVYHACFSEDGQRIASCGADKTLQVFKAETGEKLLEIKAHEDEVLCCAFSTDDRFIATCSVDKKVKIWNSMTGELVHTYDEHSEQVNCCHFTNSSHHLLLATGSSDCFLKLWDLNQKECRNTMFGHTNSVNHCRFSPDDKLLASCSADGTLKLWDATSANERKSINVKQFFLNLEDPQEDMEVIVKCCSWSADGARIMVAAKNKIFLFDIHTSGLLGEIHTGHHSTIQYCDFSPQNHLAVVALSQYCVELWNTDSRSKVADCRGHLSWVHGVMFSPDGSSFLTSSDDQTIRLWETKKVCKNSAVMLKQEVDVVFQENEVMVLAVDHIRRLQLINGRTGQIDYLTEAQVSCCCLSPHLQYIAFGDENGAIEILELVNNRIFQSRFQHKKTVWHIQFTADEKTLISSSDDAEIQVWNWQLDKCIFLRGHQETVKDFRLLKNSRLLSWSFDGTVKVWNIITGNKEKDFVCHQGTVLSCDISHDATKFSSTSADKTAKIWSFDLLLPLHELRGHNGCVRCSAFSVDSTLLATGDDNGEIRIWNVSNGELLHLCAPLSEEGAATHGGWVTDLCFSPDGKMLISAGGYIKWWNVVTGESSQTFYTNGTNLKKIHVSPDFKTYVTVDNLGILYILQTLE
The assay is described as follows: SAR analysis of small molecule Activators of Apaf-1 in a Fluorescent assay - set 2. As to conditions: read-out: EC50_Mean.

Activity calls are given as the source filed them.

Broadly, the IC50 is the midpoint of a concentration-inhibition curve.

Chain of Melanin-concentrating hormone receptor 1 (Q99705 whole entry): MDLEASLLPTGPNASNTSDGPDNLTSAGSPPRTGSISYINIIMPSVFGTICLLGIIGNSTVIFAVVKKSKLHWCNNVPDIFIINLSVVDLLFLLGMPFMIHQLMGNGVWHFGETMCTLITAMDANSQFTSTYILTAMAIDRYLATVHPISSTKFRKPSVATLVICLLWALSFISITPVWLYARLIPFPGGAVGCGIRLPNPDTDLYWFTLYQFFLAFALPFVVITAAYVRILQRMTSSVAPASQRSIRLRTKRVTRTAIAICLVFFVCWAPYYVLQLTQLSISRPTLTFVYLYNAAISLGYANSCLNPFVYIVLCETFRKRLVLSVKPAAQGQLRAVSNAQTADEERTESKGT

As for `NC(=O)C(c1ccccc1)c1c(Cl)cnn(Cc2cccc3ccccc23)c1=O` (centres undefined), the IC50 in assay [1] and in assay [2] was > 20 µM (inactive) each time.

Take `O=C(O)C1(Cn2cccn2)CC1`: the EC50 in assay [3] and in assay [4] was > 100 µM (inactive) in each case.
